# pIC50: −log10 of the molar value.
# Target: T1, His6-Flag-TEV-NLRP3 (134-1036) (Homo sapiens, UniProt Q96P20)
# T1 construct: fused on or other part: N-terminal His6 tag, Flag tag and TEV cleavage site
# Test: NLRP3 fluorescence polarization (FP) binding assay, competition with probe NP3-301
# Details: competition with NP3-301 for binding to NLRP3 (134-1036), 30 nM protein
# Protocol: This experiment uses fluorescence polarization technology to detect and evaluate the binding assay.
# The fluorescent probe used in this assay is the compound NP3-301 in the Journal of Molecular Biology (2021) 433, 167309, which was synthesized with reference to this literature.
# His6-Flag-TEV-NLRP3 (134-1036) protein (SEQ NO. 1) was purchased from Kaihuiruizhi Biotech (Shanghai) Co., Ltd. (ChemPartner), and was customed for expression.
# Prepare 1× assay buffer: 50 mM Hepes, pH 7.4, 150 mM NaCl, 2.5 mM MgCl2, 0.005% Tween-20, 1 mM TCEP, 100 μM ATP.
# First, 2.5 μL of 4× compound solution was added to a black shallow 384-well plate (Greiner, 784076), the shallow well plate was sealed, and centrifuged at 1000 rpm for 1 min; then 2× NLPR3 protein solution (final concentration of 30 nM) was added, the shallow well plate was sealed, centrifuged at 1000 rpm for 1 min, and incubated at room temperature for 60 min. Finally, 2.5 μL of 4× NP3-301 (final concentration of 0.5 nM) was added, the shallow well plate was sealed, centrifuged at 1000 rpm for 1 min, and incubated at room temperature for 30 min. Envision was used to read the fluorescence polarization values of λex=485+20 nm and kem=535+25 nm. GraphPad Prism 9.5.0 was used to analyze the data, and the IC50 value of the competition between the compound and NP3-301 for binding to His6-Flag-TEV-NLRP3 (134-1036) was fitted by four-parameter logistic. The compounds of the present disclosure have good NLRP3 binding activity, and the test results of some representative compounds are shown in Table 1.
# T1 sequence (Q96P20 134-1036 limits assumed): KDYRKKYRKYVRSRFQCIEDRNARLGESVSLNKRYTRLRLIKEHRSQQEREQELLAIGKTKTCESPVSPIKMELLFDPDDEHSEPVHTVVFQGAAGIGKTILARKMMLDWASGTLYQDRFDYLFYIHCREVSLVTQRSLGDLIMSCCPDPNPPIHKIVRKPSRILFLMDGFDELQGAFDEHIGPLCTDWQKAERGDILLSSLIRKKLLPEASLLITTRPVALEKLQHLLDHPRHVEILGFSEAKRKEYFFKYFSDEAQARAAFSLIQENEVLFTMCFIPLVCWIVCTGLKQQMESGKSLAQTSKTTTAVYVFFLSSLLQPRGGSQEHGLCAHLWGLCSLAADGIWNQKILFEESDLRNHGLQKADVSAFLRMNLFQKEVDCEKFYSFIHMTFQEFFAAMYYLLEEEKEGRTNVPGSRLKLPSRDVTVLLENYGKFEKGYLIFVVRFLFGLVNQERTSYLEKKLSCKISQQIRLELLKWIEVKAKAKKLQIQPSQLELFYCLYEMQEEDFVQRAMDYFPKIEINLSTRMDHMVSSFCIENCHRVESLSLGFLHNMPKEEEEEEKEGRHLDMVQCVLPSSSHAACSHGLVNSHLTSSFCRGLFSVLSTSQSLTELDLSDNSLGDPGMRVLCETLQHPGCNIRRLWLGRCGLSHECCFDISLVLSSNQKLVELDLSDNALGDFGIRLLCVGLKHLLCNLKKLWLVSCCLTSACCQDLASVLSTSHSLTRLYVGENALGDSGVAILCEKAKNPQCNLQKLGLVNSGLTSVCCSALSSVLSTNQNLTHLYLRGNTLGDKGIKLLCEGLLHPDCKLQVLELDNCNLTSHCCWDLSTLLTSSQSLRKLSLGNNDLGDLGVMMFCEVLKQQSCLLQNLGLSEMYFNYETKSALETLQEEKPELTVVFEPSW
row,Compound,pIC50
1,Cc1cc(C(F)(F)F)cc(O)c1-c1ccc2[nH]c(N)nc2n1 [Compound 1],6.30 to 7.00
2,Cc1cc(C(F)(F)F)cc(O)c1-c1ccc2ccc(N)nc2n1 [Compound 7],6.30 to 7.00
3,Cc1cc(C(F)(F)F)cc(O)c1-c1ccc2nc(N)nn2n1 [Compound 13],6.00 to 6.30
4,Cc1cc(C(F)(F)F)cc(O)c1-c1ccc2oc(N[C@@H]3COCC[C@H]3O)nc2n1 [Compound 81],6.30 to 7.00
5,Cc1cc(C(F)(F)F)cc(O)c1-c1ccc2oc(NC3CC3)nc2n1 [Compound 82],≥ 7.00
6,COc1cc(C)c(-c2ccc3oc(NC[C@@H]4COCCN4C(C)=O)nc3n2)c(O)c1 [Compound 255],6.00 to 6.30
7,Cc1cc(C(F)(F)F)cc(O)c1-c1ccc2oc(NC[C@@H]3COCCN3S(C)(=O)=O)nc2n1 [Compound 258],≥ 7.00
8,CCS(=O)(=O)N1CCOC[C@H]1CNc1nc2nc(-c3c(C)cc(C(F)(F)F)cc3O)ccc2o1 [Compound 259],≥ 7.00
9,CC(=O)N1C[C@@H](O)[C@H](Nc2nc3nc(-c4c(C)cc(C(F)(F)F)cc4O)ccc3o2)C1 [Compound 272],≥ 7.00
10,CC(=O)N1CC[C@H](Nc2nc3nc(-c4c(C)cc(C(F)(F)F)cc4O)ccc3o2)C1 [Compound 273],6.30 to 7.00
11,CC(=O)N1C[C@@H]2CN(c3nc4nc(-c5c(C)cc(C(F)(F)F)cc5O)ccc4o3)C[C@@H]2C1 [Compound 360],≥ 7.00
12,Cc1cc(C(F)(F)F)cc(O)c1-c1ccc2oc(N3CCC4(CCOC4)C3)nc2n1 (centres unmarked) [Compound 361],6.30 to 7.00
13,Cc1cc(C(F)(F)F)cc(O)c1-c1ccc2oc(N3CCC4(CC3)COC4)nc2n1 [Compound 362],≥ 7.00
14,Cc1cc(C(F)(F)F)cc(O)c1-c1ccc2oc(N3CCC4(CCO4)CC3)nc2n1 [Compound 363],≥ 7.00
15,CCN1CCC2(CC1)CCN(c1nc3nc(-c4c(C)cc(C(F)(F)F)cc4O)ccc3o1)CC2 [Compound 367],6.30 to 7.00
16,Cc1cc(C(F)(F)F)cc(O)c1-c1ccc2oc(N3CCC4(CCCCO4)CC3)nc2n1 [Compound 368],≥ 7.00

row,Compound,pIC50
1,CC(=O)N1CCOC2(CCN(c3nc4nc(-c5c(C)cc(C(F)(F)F)cc5O)ccc4o3)CC2)C1 [Compound 369],6.30 to 7.00
2,CC(=O)N1CCCC2(CCN(c3nc4nc(-c5c(C)cc(C(F)(F)F)cc5O)ccc4o3)CC2)C1 [Compound 370],6.00 to 6.30
3,Cc1cc(C(F)(F)F)cc(O)c1-c1ccc2oc(N3CCOC[C@@H]3C)nc2n1 [Compound 373],6.30 to 7.00
4,Cc1cc(C(F)(F)F)cc(O)c1-c1ccc2oc(N3CC4CC(C3)O4)nc2n1 [Compound 378],6.30 to 7.00
5,Cc1cc(C(F)(F)F)cc(O)c1-c1ccc2oc(N3C[C@H]4C[C@@H]3CO4)nc2n1 [Compound 379],6.30 to 7.00
6,Cc1cc(C(F)(F)F)cc(O)c1-c1ccc2oc(N3C[C@@H]4C[C@H]3CO4)nc2n1 [Compound 380],6.30 to 7.00
7,Cc1cc(C(F)(F)F)cc(O)c1-c1ccc2oc(N3CCS(=O)(=O)c4ccccc43)nc2n1 [Compound 386],≥ 7.00
8,CC(=O)N1CCN(c2nc3nc(-c4c(C)cc(C(F)(F)F)cc4O)ccc3o2)CC1 [Compound 389],≥ 7.00
9,Cc1cc(C(F)(F)F)cc(O)c1-c1ccc2oc(N3CC4CC(C3)N4S(C)(=O)=O)nc2n1 [Compound 395],≥ 7.00
10,CCN1C[C@H](Nc2nc3nc(-c4c(C)cc(C(F)(F)F)cc4O)ccc3o2)CC(F)(F)C1 [Compound 398],≥ 7.00
11,Cc1cc(C(F)(F)F)cc(O)c1-c1ccc2oc(N[C@@H]3CCCN(CC#N)C3)nc2n1 [Compound 402],≥ 7.00
12,Cc1cc(C(F)(F)F)cc(O)c1-c1ccc2oc(N[C@@H]3CCCN(CC(C)(C)O)C3)nc2n1 [Compound 403],≥ 7.00
13,CC(=O)N1CCC(Nc2nc3nc(-c4c(C)cc(C(F)(F)F)cc4O)ccc3o2)CC1 [Compound 412],6.30 to 7.00
14,CC(=O)N1CCOC[C@H]1CNc1nc2c(C)cc(-c3c(C)cc(C(F)(F)F)cc3O)nn2n1 [Compound 425],6.30 to 7.00
15,Cc1cc(C(F)(F)F)cc(O)c1-c1ccc2nc(N[C@@H]3CCCN(CCO)C3)nn2n1 [Compound 454],≥ 7.00

# Now from value to compound:
row,pIC50,Compound
1,6.00 to 6.30,Cc1cc(C(F)(F)F)cc(O)c1-c1ccc2[nH]c(CC(=O)O)nc2n1 [Compound 4]
2,6.30 to 7.00,CCN1CCC[C@H](n2ccc3cc(-c4c(C)cc(C(F)(F)F)cc4O)nnc32)C1 [Compound 11-b]
3,< 6.00,Cc1cc(C(F)(F)F)cc(O)c1-c1cc2ccn(Cc3cc(C#N)ccn3)c2nn1 [Compound 121]
4,6.00 to 6.30,Cc1cc(C(F)(F)F)cc(O)c1-c1cc2ccn(C3CCS(=O)(=O)C3)c2nn1 (centres unmarked) [Compound 123]
5,6.30 to 7.00,Cc1cc(C(F)(F)F)cc(O)c1-c1cc2ccn(C3CCS(=O)(=O)CC3)c2nn1 [Compound 124]
6,6.30 to 7.00,Cc1cc(C(F)(F)F)cc(O)c1-c1cc2ccn(C3CS(=O)(=O)C3)c2nn1 [Compound 125]
7,6.30 to 7.00,CC(=O)N1CCOC[C@H]1CNc1nc2nc(-c3c(C)cc(C)cc3O)ccc2o1 [Compound 254]
8,6.30 to 7.00,CC(=O)N1CC[C@@H](CNc2nc3nc(-c4c(C)cc(C(F)(F)F)cc4O)ccc3o2)C1 [Compound 271]
9,6.30 to 7.00,Cc1cc(C(F)(F)F)cc(O)c1-c1ccc2oc(N3CC4(COC4)C3)nc2n1 [Compound 357]
10,6.30 to 7.00,CCN1CC2(CCN(c3nc4nc(-c5c(C)cc(C(F)(F)F)cc5O)ccc4o3)CC2)C1 [Compound 358]
11,≥ 7.00,CC(=O)N1CC2(CCN(c3nc4nc(-c5c(C)cc(C(F)(F)F)cc5O)ccc4o3)CC2)C1 [Compound 359]
12,≥ 7.00,CC(=O)N1CCC2(CCN(c3nc4nc(-c5c(C)cc(C(F)(F)F)cc5O)ccc4o3)C2)C1 (centres unmarked) [Compound 364]
13,6.30 to 7.00,CC(=O)N1CCC2(CC1)CN(c1nc3nc(-c4c(C)cc(C(F)(F)F)cc4O)ccc3o1)CCO2 [Compound 365]
14,6.30 to 7.00,CC(=O)N1CCC2(CC1)CCN(c1nc3nc(-c4c(C)cc(C(F)(F)F)cc4O)ccc3o1)CC2 [Compound 366]
15,≥ 7.00,Cc1cc(C(F)(F)F)cc(O)c1-c1ccc2oc(N3CCO[C@@H](C)C3)nc2n1 [Compound 372]
16,≥ 7.00,Cc1cc(C(F)(F)F)cc(O)c1-c1ccc2oc(N3CCO[C@H](C)C3)nc2n1 [Compound 374]
17,≥ 7.00,Cc1cc(C)c(-c2ccc3oc(N4CCOCC4)nc3n2)c(O)c1 [Compound 375]
18,≥ 7.00,Cc1cc(C(F)(F)F)cc(O)c1-c1ccc2oc(N3CCCOCC3)nc2n1 [Compound 377]
19,6.30 to 7.00,Cc1cc(C(F)(F)F)cc(O)c1-c1ccc2oc(C3CCCNC3)nc2n1 (centres unmarked) [Compound 382]

row,pIC50,Compound
1,6.30 to 7.00,Cc1cc(C)c(-c2ccc3oc(N4CCS(=O)(=O)CC4)nc3n2)c(O)c1 [Compound 385]
2,≥ 7.00,CCS(=O)(=O)N1CCN(c2nc3nc(-c4c(C)cc(C)cc4O)ccc3o2)CC1 [Compound 391]
3,6.30 to 7.00,CCS(=O)(=O)N1CCN(c2nc3nc(-c4c(C)cc(C(F)(F)F)cc4O)ccc3o2)[C@@H](C)C1 [Compound 393]
4,≥ 7.00,Cc1cc(C(F)(F)F)cc(O)c1-c1ccc2oc(N3CCN(C)C3=O)nc2n1 [Compound 396]
5,≥ 7.00,Cc1cc(C(F)(F)F)cc(O)c1-c1ccc2oc(N[C@@H]3CCCN(C4COC4)C3)nc2n1 [Compound 401]
6,≥ 7.00,Cc1cc(C(F)(F)F)cc(O)c1-c1ccc2oc(N[C@@H]3CCCN(C(=O)C4CC4)C3)nc2n1 [Compound 405]
7,≥ 7.00,Cc1cc(C(F)(F)F)cc(O)c1-c1ccc2oc(N[C@@H]3CCCN(S(=O)(=O)C4CC4)C3)nc2n1 [Compound 406]
8,≥ 7.00,CC(=O)N1CCC[C@@H](Nc2nc3nc(-c4c(C)cc(C(F)(F)F)cc4O)ccc3o2)C1 [Compound 407]
9,≥ 7.00,Cc1cc(C(F)(F)F)cc(O)c1-c1ccc2oc(N[C@@H]3CCCN(S(C)(=O)=O)C3)nc2n1 [Compound 408]
10,6.30 to 7.00,Cc1cc(C(F)(F)F)cc(O)c1-c1ccc2oc(NC3CCN(S(C)(=O)=O)CC3)nc2n1 [Compound 411]
11,6.30 to 7.00,CC(=O)N1CCOC[C@H]1CNc1nc2ccc(-c3c(C)cc(C(F)(F)F)cc3O)nn2n1 [Compound 419]
12,≥ 7.00,Cc1cc(Cl)cc(O)c1-c1ccc2nc(N3CCOCC3)nn2n1 [Compound 420]
13,6.00 to 6.30,Cc1cc(C(F)(F)F)cc(O)c1-c1ccc2nc(NC[C@@H]3COCCN3S(C)(=O)=O)nn2n1 [Compound 421]
14,≥ 7.00,Cc1cc(C(F)(F)F)cc(O)c1-c1ccc2cc(N3CCOC[C@H]3C)nn2n1 [Compound 438]
15,≥ 7.00,CCN1CCC[C@@H](Nc2nc3ccc(-c4c(C)cc(F)cc4O)nn3n2)C1 [Compound 449]
16,≥ 7.00,[2H]C([2H])([2H])C(=O)N1CCOC[C@H]1CNc1nc2nc(-c3c(C)cc(C(F)(F)F)cc3O)ccc2o1 [Compound 450]
17,≥ 7.00,CC(=O)N1CCOC[C@H]1CNc1nc2nc(-c3c(C)cc(Cl)cc3O)cc(C)c2o1 [Compound 452]
18,6.00 to 6.30,CC(=O)N1CCOC[C@H]1CNc1nc2nc(-c3c(C)cc(C(F)(F)F)cc3O)ccn2n1 [Compound 453]

# Reference: patent US20260234150A1, “COMPOUND FOR INHIBITING NLRP3, PREPARATION METHOD, AND USE” (DOVETREE MEDICINES UNUS, INC., priority 2023, published 2026)
